Molecules are shown by their SMILES. Where a name gives a salt, the structure may show the parent alone.

Assay [1] addresses T1, Thromboxane A2 Synthetase (Oryctolagus cuniculus, UniProt G1TAZ9).
T1 construct: The platelet microsome fraction was separated from rabbit and from human blood; from tissue; host or cells: rabbit blood platelets, microsome fraction
T1 sequence (G1TAZ9 1-530): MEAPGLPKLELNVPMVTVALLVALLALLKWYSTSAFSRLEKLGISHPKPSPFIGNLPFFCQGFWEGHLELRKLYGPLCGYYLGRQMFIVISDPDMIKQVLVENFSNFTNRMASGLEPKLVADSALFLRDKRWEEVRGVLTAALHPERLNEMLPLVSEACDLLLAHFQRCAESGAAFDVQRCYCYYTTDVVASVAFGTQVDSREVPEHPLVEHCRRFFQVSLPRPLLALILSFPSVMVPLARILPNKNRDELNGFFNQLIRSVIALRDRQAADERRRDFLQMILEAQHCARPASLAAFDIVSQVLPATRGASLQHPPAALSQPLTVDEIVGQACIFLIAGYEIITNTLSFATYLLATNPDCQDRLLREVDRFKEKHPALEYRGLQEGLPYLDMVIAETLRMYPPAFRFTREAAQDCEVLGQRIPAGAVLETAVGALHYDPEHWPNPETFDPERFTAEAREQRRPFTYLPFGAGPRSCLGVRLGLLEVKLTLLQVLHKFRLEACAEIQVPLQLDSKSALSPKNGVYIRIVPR
As to the kind of experiment: Inhibition of Thromboxane A2 Synthetase, rabbit platelet microsomes. It is filed as biochemical. To be noted: 1-[14C] arachidonic acid 0.1 mM, 1 minute at 22° C., read-out: IC50, concentration required to inhibit the activity of thromboxane synthetase by 50%. How it is done: (§1) The platelet microsome fraction was separated from rabbit and from human blood by the method of Needleman et al. [Needleman et al., Science, 193, 163 (1976)]. The microsomal TXA2 synthetase activity in the presence of various of the compounds of the invention at various concentrations was assayed by a modification of the method of […] et al. [[…] et al., Prostaglandins, 21, 543 (1981)] by incubating the microsome fractions with labelled 1-[^14 C] arachidonic acid at a concentration of 0.1 mM for 1 minute at 22° C., to a final volume of 0.2 ml. The reaction was terminated by the addition of […] of 0.2M citric acid, and then the mixture was extracted with 1.5 ml of ethyl acetate. […] The developing solvent for the chromatography was a 90:8:1:0.8 by volume mixture of chloroform, methanol, acetic acid and water. […] The results are shown in the following Tables 1 and 2 as the IC50, i.e. the concentration required to inhibit the activity of thromboxane synthetase by 50%. The results using rabbits platelet microsomes are given in Table 1, whilst the results using human platelet microsomes are given in Table 2.

The target in assay [2] is T2, Thromboxane A2 Synthetase (Homo sapiens, UniProt P24557).
T2 construct: The platelet microsome fraction was separated from rabbit and from human blood; from tissue; host or cells: human blood platelets, microsome fraction
T2 sequence (P24557 1-533): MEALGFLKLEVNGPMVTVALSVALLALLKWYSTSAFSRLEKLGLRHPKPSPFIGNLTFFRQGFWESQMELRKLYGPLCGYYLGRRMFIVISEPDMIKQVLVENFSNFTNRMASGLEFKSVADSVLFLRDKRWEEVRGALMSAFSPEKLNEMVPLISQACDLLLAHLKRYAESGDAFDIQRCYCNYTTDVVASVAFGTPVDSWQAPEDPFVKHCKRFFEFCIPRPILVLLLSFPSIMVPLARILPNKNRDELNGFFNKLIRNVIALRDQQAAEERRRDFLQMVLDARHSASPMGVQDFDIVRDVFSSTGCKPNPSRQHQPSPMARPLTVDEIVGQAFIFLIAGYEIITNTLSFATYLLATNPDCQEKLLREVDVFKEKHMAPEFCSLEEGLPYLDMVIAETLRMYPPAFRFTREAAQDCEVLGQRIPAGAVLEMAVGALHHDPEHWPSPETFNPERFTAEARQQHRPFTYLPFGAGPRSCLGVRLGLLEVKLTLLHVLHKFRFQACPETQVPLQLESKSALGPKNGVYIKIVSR
As to the kind of experiment: Inhibition of Thromboxane A2 Synthetase, human platelet microsomes. It is filed as biochemical. To be noted: 1-[14C] arachidonic acid 0.1 mM, 1 minute at 22° C., read-out: IC50, concentration required to inhibit the activity of thromboxane synthetase by 50%. How it is done:
as §1

The next assay relates to rabbits. As to the kind of experiment: Antithrombotic Activity in Rabbits (sudden death after i.v. arachidonic acid). It is filed as in vivo, male Japanese white rabbits. To be noted: Oryctolagus cuniculus, 1 h; oral, one hour before 1.3 mg/kg arachidonic acid i.v.; Probit's method. Here is the method: This test was carried out by a modification of the method of Silver et al. [Science, 183, 1085 (1974)]. The test animals used were male Japanese white rabbits of approximately 3 kg body weight. Each group of rabbits was administered orally the test compound at an appropriate dose and then, one hour after the oral administration, each was given 1.3 mg/kg of arachidonic acid by intravenous injection. The test animals were observed and sudden deaths during the test period were recorded. The ED50 was determined by Probit's method. Unmedicated rabbits were employed as a control, without administering any test compound, but these were all dead within several minutes after the injection of arachidonic acid, as a result of pulmonary thromboembolisms.

For `O=C(O)C1CCc2sc(Cn3ccnc3)cc2C1` (stereo not drawn) [Compound C, 4,5,6,7-tetrahydro-2-(1-imidazolyl)methylthianaphthene-5-carboxylic acid hydrochloride], the IC50 in assay [1] is 86 nM.
As for `O=C(O)C1CCc2cc(Cn3ccnc3)sc2C1` (stereo not drawn) [Compound A, 4,5,6,7-tetrahydro-2-(1-imidazolyl)methylthianaphthene-6-carboxylic acid hydrochloride], the values for the IC50 in assay [1] and in assay [2] were 26 nM and 30 nM, respectively. The compound further had an ED50 with rabbits of 0.27 mg/kg.
In the same order, the values of `O=C(O)C1=Cc2sc(Cn3ccnc3)cc2CC1` [Compound B, sodium 4,5-dihydro-2-(1-imidazolyl)methylthianaphthene-6-carboxylate] are 13 nM, 31 nM and 0.12 mg/kg.
Regarding `Cl.O=C(O)c1ccc(OCCn2ccnc2)cc1` [Dazoxiben, 4-[2-(1-imidazolyl)ethoxy]benzoic acid hydrochloride, reference compound], the IC50 in assay [1] was 106 nM. This compound also came in with an ED50 with rabbits of 1.1 mg/kg.

The values are drawn from US4847272A, “Thianaphthene derivatives” (Sankyo Company Limited, priority 1986, dated 1989).
